Results taken from ChEMBL document CHEMBL4732079, “Design, synthesis and antitumor evaluation of new 1,8-naphthalimide derivatives targeting nuclear DNA” (Eur J Med Chem, 2021).
Blank lines part the entries; values can stand above or below the compound they belong to. Activity calls are given as the source filed them. The rule behind the calls is not given here.

How the values were obtained:
MGC-803 [1] = experiment: Induction of cell cycle arrest in human MGC-803 cells assessed as accumulation of cells at S phase at 0.25 uM for 24 hrs (Rvb =20.23%); assay type: functional
MGC-803 [2] = experiment: Induction of cell cycle arrest in human MGC-803 cells assessed as accumulation of cells at G2 phase at 0.25 uM for 24 hrs (reference value: 17.61%); assay type: functional
SMMC-7721 = experiment: Antiproliferative activity against human SMMC-7721 cells by MTT assay; assay type: functional, cell-based
T-24 = experiment: Antiproliferative activity against human T-24 cells by MTT assay; assay type: functional, cell-based
MGC-803 [3] = experiment: Antiproliferative activity against human MGC-803 cells by MTT assay; assay type: functional, cell-based
MGC-803 [4] = experiment: Antitumor activity against human MGC-803 cells xenografted in BALB/c nude mice assessed as tumor increment rate at 5 mg/kg, ip measured after 21 days relative to control; assay type: functional; conditions: time 21 day
MGC-803 [5] = experiment: Antitumor activity against human MGC-803 cells xenografted in BALB/c nude mice assessed as tumor increment rate at 15 mg/kg, ip measured after 21 days relative to control; assay type: functional; conditions: time 21 day
MGC-803 [6] = experiment: Antitumor activity against human MGC-803 cells xenografted in BALB/c nude mice assessed as tumor inhibitory rate at 5 mg/kg, ip measured after 21 days relative to control; assay type: functional; conditions: Mus musculus, MGC-803, ip, 504 h, time 21 day
MGC-803 [7] = experiment: Antitumor activity against human MGC-803 cells xenografted in BALB/c nude mice assessed as tumor inhibitory rate at 15 mg/kg, ip measured after 21 days relative to control; assay type: functional; conditions: Mus musculus, MGC-803, ip, 504 h, time 21 day
[8] = Toxicity in BALB/c nude mouse xenografted with human MGC-803 cells assessed effect on body weight at 5 to 15 mg/kg, ip measured after 21 days; assay type: organism-based; conditions: in vivo, 504 h, dose 5-15 mg/kg, time 21 day
DNA [9] = experiment: Binding affinity to Escherichia coli pBR322 DNA assessed as intercalation at 10 to 100 uM by agarose gel electrophoresis assay; assay type: nucleic-acid assay; conditions: dose 10-100 µM
DNA [10] = experiment: Induction of DNA damage in human MGC-803 cells assessed as long DNA tails at 1 uM after 24 hrs by comet assay; assay type: cell-based
DNA [11] = experiment: Induction of DNA damage in human MGC-803 cells assessed as increase in p-ATM levels at 0.5 to 1 uM by Western blot analysis; assay type: cell-based; conditions: dose 0.5-1 µM
DNA [12] = experiment: Induction of DNA damage in human MGC-803 cells assessed as increase in p-CHK2 levels at 0.5 to 1 uM by Western blot analysis; assay type: cell-based; conditions: dose 0.5-1 µM
[13] = biological target: T1, DNA topoisomerase 1 (Homo sapiens) (UniProt P11387); experiment: Inhibition of topoisomerase 1 (unknown origin) assessed as DNA relaxation using pBR322 DNA as substrate at < 20 uM by gel electrophoresis; conditions: dose microM <20
T1 sequence (whole entry): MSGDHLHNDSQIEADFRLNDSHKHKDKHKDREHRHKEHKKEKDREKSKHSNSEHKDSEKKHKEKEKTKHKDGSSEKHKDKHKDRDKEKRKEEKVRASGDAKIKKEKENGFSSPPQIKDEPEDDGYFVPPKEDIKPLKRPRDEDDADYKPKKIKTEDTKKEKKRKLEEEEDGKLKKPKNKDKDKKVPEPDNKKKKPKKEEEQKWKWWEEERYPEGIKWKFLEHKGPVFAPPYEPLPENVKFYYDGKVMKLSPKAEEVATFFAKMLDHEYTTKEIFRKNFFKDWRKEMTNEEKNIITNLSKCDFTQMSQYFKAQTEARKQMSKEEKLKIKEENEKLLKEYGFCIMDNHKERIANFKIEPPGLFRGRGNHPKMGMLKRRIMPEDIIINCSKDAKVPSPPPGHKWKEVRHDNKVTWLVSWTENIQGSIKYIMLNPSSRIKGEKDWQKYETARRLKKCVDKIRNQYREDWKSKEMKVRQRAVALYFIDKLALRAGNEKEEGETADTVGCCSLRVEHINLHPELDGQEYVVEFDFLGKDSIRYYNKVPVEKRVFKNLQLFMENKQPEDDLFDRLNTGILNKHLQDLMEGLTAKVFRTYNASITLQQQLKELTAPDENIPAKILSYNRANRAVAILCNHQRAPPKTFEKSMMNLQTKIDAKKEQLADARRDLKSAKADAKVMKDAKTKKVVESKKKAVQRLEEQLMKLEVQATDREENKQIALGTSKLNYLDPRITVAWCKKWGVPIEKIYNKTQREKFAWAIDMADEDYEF

MGC-803 [14] = experiment: Induction of cell cycle arrest in human MGC-803 cells assessed as accumulation of cells at G2 phase at 0.5 uM for 24 hrs (reference value: 17.61%); assay type: functional
MGC-803 [15] = experiment: Induction of cell cycle arrest in human MGC-803 cells assessed as accumulation of cells at S phase at 0.5 uM for 24 hrs (Rvb =20.23%); assay type: functional
MGC-803 [16] = experiment: Induction of cell cycle arrest in human MGC-803 cells assessed as accumulation of cells at G1 phase at 1 uM for 24 hrs (reference value: 62.6%); assay type: functional
MGC-803 [17] = experiment: Induction of cell cycle arrest in human MGC-803 cells assessed as accumulation of cells at G2 phase at 1 uM for 24 hrs (reference value: 17.61%); assay type: functional
MGC-803 [18] = experiment: Induction of cell cycle arrest in human MGC-803 cells assessed as accumulation of cells at S phase at 1 uM for 24 hrs (Rvb =20.23%); assay type: functional
MGC-803 [19] = experiment: Effect on CDK2 expression in human MGC-803 cells at 0.5 to 1 uM by Western blot analysis; assay type: functional, cell-based; conditions: dose 0.5-1 µM
MGC-803 [20] = experiment: Induction of apoptosis in human MGC-803 cells assessed as viable cells at 0.5 uM after 24 hrs (reference value: 93.6%); assay type: functional; conditions: read-out: Activity
MGC-803 [21] = experiment: Induction of apoptosis in human MGC-803 cells assessed as early apoptotic cells at 0.5 uM after 24 hrs (reference value: 2.9%); assay type: functional
MGC-803 [22] = experiment: Induction of apoptosis in human MGC-803 cells assessed as late apoptotic cells at 0.5 uM after 24 hrs (reference value: 2.6%); assay type: functional
MGC-803 [23] = experiment: Induction of apoptosis in human MGC-803 cells assessed as necrotic cells at 0.5 uM after 24 hrs (reference value: 0.9%); assay type: functional
MGC-803 [24] = experiment: Induction of apoptosis in human MGC-803 cells assessed as viable cells at 1 uM after 24 hrs (reference value: 93.6%); assay type: functional; conditions: read-out: Activity
MGC-803 [25] = experiment: Induction of apoptosis in human MGC-803 cells assessed as early apoptotic cells at 1 uM after 24 hrs (reference value: 2.9%); assay type: functional
MGC-803 [26] = experiment: Induction of apoptosis in human MGC-803 cells assessed as early apoptotic cells at 2 uM after 24 hrs (reference value: 2.9%); assay type: functional
MGC-803 [27] = experiment: Induction of apoptosis in human MGC-803 cells assessed as increase in caspase-3 expression at 0.5 to 1 uM by Western blot analysis; assay type: functional, cell-based; conditions: dose 0.5-1 µM
MGC-803 [28] = experiment: Induction of apoptosis in human MGC-803 cells assessed as decrease in Bcl2 expression at 0.5 to 1 uM by Western blot analysis; assay type: functional, cell-based; conditions: dose 0.5-1 µM
A549 = experiment: cells; conditions: Homo sapiens
Description: Antiproliferative activity against human A549 cells by MTT assay

- IC50 (SMMC-7721): 2710 nM
- IC50 (MGC-803 [3]): 1420 nM
- Activity (DNA [9]): Active
- inhibition [13]: Active
- IC50 (A549): 270 nM
SMILES: Cc1ccc(S(=O)(=O)N2CCN(c3c([N+](=O)[O-])cc4c5c(cccc35)C(=O)N(CCN(C)C)C4=O)CC2)cc1
- Activity (MGC-803 [1]): 40.4%
- Activity (MGC-803 [2]): 5.83%
- IC50 (T-24): 330 nM
- T/C (MGC-803 [4]): 52%
- T/C (MGC-803 [5]): 38.4%
- inhibition in vivo at 5 mg/kg (MGC-803 [6]): 41.9%
- inhibition in vivo at 15 mg/kg (MGC-803 [7]): 61.7%
- Activity [8]: Non-Toxic
- Activity (DNA [10]): Active
- Activity (DNA [11]): Active
- Activity (DNA [12]): Active
- Activity (MGC-803 [14]): 0.19%
- Activity (MGC-803 [15]): 43.96%
- Activity (MGC-803 [16]): 24.82%
- Activity (MGC-803 [17]): 0%
- Activity (MGC-803 [18]): 75.18%
- Activity (MGC-803 [19]): Active
- viability at 0.5 µM (MGC-803 [20]): 78.5%
- Activity (MGC-803 [21]): 9.7%
- Activity (MGC-803 [22]): 7.6%
- Activity (MGC-803 [23]): 4.2%
- viability at 1 µM (MGC-803 [24]): 72.9%
- Activity (MGC-803 [25]): 13.1%
- Activity (MGC-803 [26]): 16.8%
- Activity (MGC-803 [27]): Active
- Activity (MGC-803 [28]): Active

- IC50 (SMMC-7721): 1570 nM
- IC50 (MGC-803 [3]): 870 nM
- Activity (DNA [9]): Active
- inhibition [13]: Active
- IC50 (A549): 410 nM
SMILES: CN(C)CCN1C(=O)c2cccc3c(N4CCN(C(=O)c5ccccc5)CC4)c([N+](=O)[O-])cc(c23)C1=O
- Activity (MGC-803 [1]): 37.8%
- Activity (MGC-803 [2]): 11.29%
- IC50 (T-24): 420 nM
- T/C (MGC-803 [4]): 59.8%
- T/C (MGC-803 [5]): 47.1%
- inhibition in vivo at 5 mg/kg (MGC-803 [6]): 40.1%
- inhibition in vivo at 15 mg/kg (MGC-803 [7]): 52.8%
- Activity [8]: Non-Toxic
- Activity (DNA [10]): Active
- Activity (DNA [11]): Active
- Activity (DNA [12]): Active
- Activity (MGC-803 [14]): 3.14%
- Activity (MGC-803 [15]): 69.18%
- Activity (MGC-803 [16]): 27.92%
- Activity (MGC-803 [17]): 0.92%
- Activity (MGC-803 [18]): 71.16%
- Activity (MGC-803 [19]): Active
- viability at 0.5 µM (MGC-803 [20]): 74.9%
- Activity (MGC-803 [21]): 10.1%
- Activity (MGC-803 [22]): 11.6%
- Activity (MGC-803 [23]): 3.4%
- viability at 1 µM (MGC-803 [24]): 66.5%
- Activity (MGC-803 [25]): 17.5%
- Activity (MGC-803 [26]): 32%
- Activity (MGC-803 [27]): Active
- Activity (MGC-803 [28]): Active
